According to article PMC12677844, “Profiling Inhibitor Scaffolds for the Cancer Target Jumonji‐C Domain‐Containing Protein 6” (Chemmedchem, 2025):
“And” between values parts separate entries of the source, which are not always exact repeats. Equal entries are not always repeated. Where two headings read alike, the source gives them in different places.

Key:
full‐length His6‐JMJD6 = molecular target: T1, full‐length His6‐JMJD6 (Homo sapiens, UniProt Q6NYC1); experiment: JMJD6 SPE–MS inhibition assay (BRD4_511–550 hydroxylation); assay type: biochemical; details: for IC50: His6‐JMJD6 0.05 µM, 2OG 100 µM, FAS 2 µM, BRD4_511–550 1 µM, L‐ascorbic acid 100 µM, means of two independent runs (mean ± SD)
T1 construct: Isolated recombinant full‐length human JMJD6 with a N‐terminal His6‐tag; made in house; host or cells: Escherichia coli BL21 (DE3)
Method: Co‐substrate concentrations were chosen based on reported SPE–MS kinetic parameters for the JMJD6‐catalyzed BRD4_511–550 monohydroxylation reaction.^[ [56] ^] […] Since JMJD6 has a relatively high 2OG Kmapp , the JMJD6 SPE–MS inhibition assay employs a 2OG concentration which is relatively high compared to most other 2OG oxygenase SPE–MS assays, possibly more accurately reflecting cellular 2OG concentrations.^[ [59] ^, [60] ^] Likely saturating concentrations of LAA (100 µM) and FAS (2 µM) were used.
JMJD6 catalyzes oxidation of BRD4_511–550 to give multiple hydroxylation products,^[ [56] ^] an observation potentially complicating data analysis.
Isolated recombinant full‐length human JMJD6 with a N‐terminal His6‐tag was produced in Escherichia coli BL21 (DE3) cells and purified as reported.^[ [1] ^, [56] ^] […] Purified His6‐JMJD6 was stored at −78 °C; fresh aliquots were used for all JMJD6 assays.
DMSO and 2,4‐PDCA (final assay concentration: 500 µM) were used as negative and positive inhibition controls, respectively. Each reaction was performed in technical duplicates in adjacent wells of the assay plates.
Cosubstrate/cofactor stock solutions (L‐ascorbic acid, LAA: 50 mM in Milli‐Q Ultrapure grade water; 2‐oxoglutarate, 2OG: 20 mM in Milli‐Q Ultrapure grade water; ammonium iron(II) sulfate hexahydrate, FAS, (NH4)2Fe(SO4)2·6H2O: […] in 20 mM aqueous HCl diluted to 1 mM in Milli‐Q Ultrapure grade water) were freshly prepared from commercial solids (Sigma–Aldrich) on the day of the experiment. BRD4_511–550 ([…]) was synthesized by solid‐phase peptide synthesis and was purified by GL Biochem (Shanghai) Ltd (Shanghai, China). Stock solutions of BRD4_511–550 (10 mM in water) were stored at −20 °C.
The plates were centrifuged (1000 rpm, 5 s) and incubated for 15 min at ambient temperature. The substrate mixture (2 × final concentration), containing BRD4_511–550 (2 µM), LAA (200 µM), 2OG (200 µM), and FAS (4 µM) in Tris buffer (50 mM; pH 7.5), was then dispensed across the plates (25 µL per well) using the multidrop dispenser. The plates were centrifuged (1000 rpm, 5 s) and incubated for 20 min at ambient temperature. The enzyme reaction was then stopped by the addition of 10%v/v aqueous formic acid (5 μL per well) using a 16‐channel electronic pipette (ThermoFischer Scientific). The plates were then centrifuged (1000 rpm, 30 s) and analyzed by MS.
Assay samples were aspirated under vacuum for 0.4 s and then loaded onto a C4 SPE cartridge. After loading, the C4 SPE cartridge was washed with 0.1%v/v aqueous formic acid to remove nonvolatile buffer salts (5 s, 1.5 mL min^−1). BRD4_511–550 and the corresponding hydroxylated product peptides were eluted from the SPE cartridge with 0.1%v/v aqueous formic acid in 75/25v/v acetonitrile/water into the mass spectrometer (5 s, 1.6 mL min^−1); the SPE cartridge was subsequently re‐equilibrated with 0.1%v/v aqueous formic acid (1 s, 1.25 mL min^−1).
Peaks corresponding to the m/z + 5 charge states of BRD4_511–550 and the corresponding mono‐ and dihydroxylated product peptides were extracted from the ion chromatogram and integrated using RapidFire Integrator 4.3.0 (Agilent).
From the raw data, dose–response curves (normalized to the 2,4‐PDCA and DMSO controls) were obtained by nonlinear regression (GraphPad Prism 5), which were used to determine IC50 values.

JMJD6 [1] = tested on: JMJD6; design: method as in PMID 34581506; details: 10 µM JMJD6, 100 µM LUC7L2_267–278; ref [35]; read-out: reported IC50 (JMJD6, MALDI‐TOF MS) (converted); cited from earlier work
JMJD6 [2] = tested on: JMJD6; design: method as in earlier work; details: 10 µM JMJD6, 100 µM LUC7L2_267–278; ref [22]; read-out: reported IC50 (JMJD6, LC–MS) (converted); cited from earlier work
JMJD6 [3] = tested on: JMJD6; design: method as in PMID 33991627; details: substrate other than BRD4_511–550, 2OG 10 μM, JMJD6 10 µM; ref [33]; read-out: reported IC50 (JMJD6, Succinate‐Glo) (converted); cited from earlier work
PHD2 = tested on: PHD2; design: method as in PMID 39291299; details: isolated PHD2; ref [100]; cited from earlier work
JMJD6 [4] = tested on: JMJD6; design: method as in PMID 31637004; details: assay conditions not described; ref [20]; read-out: reported IC50 (JMJD6) (converted); cited from earlier work
JMJD6 [5] = tested on: JMJD6; design: method as in PMID 31857835; details: fluorescence‐based assay; ref [32]; read-out: reported IC50 (JMJD6‐catalyzed histone dimethylarginine N‐demethylation); cited from earlier work
JMJD6 [6] = tested on: JMJD6; design: method as in PMID 35969736; details: Succinate‐Glo and MALDI‐TOF assays; ref [31]; read-out: reported IC50 (JMJD6 lysine hydroxylation); cited from earlier work

Row | SMILES | IC50 (full‐length His6‐JMJD6; read-out: IC50 (JMJD6, SPE–MS)) | IC50 (JMJD6 [1]) | also measured
1 | O=C(O)c1ccnc(C(=O)O)c1 [2,4‐PDCA, pyridine‐2,4‐dicarboxylic acid] | ~1.6 µM and 1.6 µM | ~13 µM and 13 µM | IC50 (JMJD6 [2]): ~5.4 µM and 5.4 µM
2 | O=C(N/N=C/c1c(O)ccc2ccccc12)c1ccncc1 [AS‐8351] | ~6.9 µM and 6.9 µM | – | –
3 | O=C(O)Cc1csc(=NC(=O)CS(=O)(=O)Cc2ccc3ccccc3c2)n1O [BNS] | ~0.16 µM and 0.16 µM | – | –
4 | CC(C)c1c(-c2ccccc2)[nH]c2c(C#N)cnn2c1=O [CPI‐455] | > 50 µM | – | –
5 | O=C(O)CC(O)(CC(=O)O)C(=O)O [Citrate] | > 50 µM | 987 µM | –
6 | O=C(O)CCC(=O)NO [Compound 1] | ~3.6 µM and 3.6 µM | 25 µM | –
7 | Cn1ccc(-c2cc(C(=O)OCC(F)(F)F)ccn2)n1 [Compound 7p] | ~4.2 µM and 4.2 µM | – | IC50 (JMJD6 [3]): 0.68 µM
8 | Cn1ccc(-c2cc(C(=O)O)ccn2)n1 [Compound 10a] | ~0.07 µM and 0.07 µM | – | fold more potent than Compound 7p in inhibiting JMJD6 (full‐length His6‐JMJD6; SPE–MS IC50 comparison): ≈ 60 fold; ligand efficiency (LE) (full‐length His6‐JMJD6; from JMJD6 SPE–MS potency): 0.67; fold less potent in Succinate‐Glo assay than in SPE–MS assay (full‐length His6‐JMJD6; reported Succinate‐Glo IC50 versus SPE–MS IC50): ≈ 25 fold; IC50 (JMJD6 [3]): ~1.7 µM and 1.7 µM
9 | O=C(O)c1ccncc1NCc1ccco1 [Compound 34] | ~2.6 µM and 2.6 µM | – | –
10 | CC(C)(NC(=O)c1c(O)c2ccccc2n(OCc2cscn2)c1=O)C(=O)O [Compound 48] | ~7.1 µM and 19 µM | – | –
11 | CN(C)NC(=O)CCC(=O)O [Daminozide] | – | 94 µM | IC50 (full‐length His6‐JMJD6; IC50 (JMJD6, SPE–MS)): > 50 µM
12 | O=C(O)CNC(=O)C1C(=O)N(C2CCCCC2)C(=O)N(C2CCCCC2)C1=O [Daprodustat] | – | 10 µM | IC50 (full‐length His6‐JMJD6; IC50 (JMJD6, SPE–MS)): ~28 µM and 28 µM
13 | O=C(O)CNC(=O)c1c(O)c2ccccc2n(OCC2CC2)c1=O [Desidustat] | ~2.7 µM and 2.7 µM | – | IC50 (PHD2): 1.3 µM
14 | O=C(O)CC[C@@H](O)C(=O)O [D‐2‐Hydroxyglutarate] | > 50 µM | 622 µM | –
15 | O=c1c2ccccc2[se]n1-c1ccccc1 [Ebselen] | > 50 µM | – | –
16 | O=C(O)CNC(=O)c1c(O)cc(CCc2ccccc2)n2ncnc12 [Enarodustat] | ~1.2 µM and 1.2 µM | – | IC50 (PHD2): 0.38 µM
17 | O=C(O)/C=C/C(=O)O [Fumarate] | > 50 µM | 165 µM | –
18 | O=C(O)CCNc1cc(N2CCc3ccccc3CC2)nc(-c2ccccn2)n1 [GSK‐J1] | > 50 µM | – | –
19 | O=C(O)c1ccc(O)c2ncccc12 [IOX1] | ~6.4 µM and 6.4 µM | ~10 µM and 10 µM | –
20 | O=C(O)CNC(=O)c1c(O)c2ccccc2n(Cc2ccccc2)c1=O [IOX2] | ~19 µM and 7.1 µM | – | –
21 | O=C(NCC1CCC(C(F)(F)F)CC1)c1cnc(-n2cccn2)cc1O (stereo not drawn) [IOX5] | > 50 µM | – | –

Row | SMILES | IC50 (full‐length His6‐JMJD6; read-out: IC50 (JMJD6, SPE–MS)) | IC50 (JMJD6 [1]) | also measured
22 | O=C(O)/C=C/C(=O)N(O)CCCCNCc1ccc(COC(=O)Nc2cccc3ccccc23)cc1 [JMJD histone demethylase inhibitor III] | ~0.1 µM and 0.1 µM | – | –
23 | O=C(O)c1cnn(-c2nc3cc(OC(F)(F)F)c(Cl)cc3[nH]2)c1 [JNJ‐42041935] | > 50 µM | – | –
24 | CC(C)c1cc(C(=O)N2CC[C@@H](NC(=O)C3CC3)C2)[nH]n1 [KDM5A‐IN‐1] | > 50 µM | – | –
25 | O=C(O)CC[C@H](O)C(=O)O [L‐2‐Hydroxyglutarate] | > 50 µM | 871 µM | –
26 | COc1ccc(C(NC(=O)c2cnc(-c3cccnn3)nc2O)c2ccc(OC)cc2)cc1 [MK‐8617] | > 50 µM | – | –
27 | CN(C)CCCNC(=O)c1ccc(-c2cc(O)c3ncccc3c2)cc1 [ML324] | ~1.4 µM and 1.4 µM | – | –
28 | O=C(O)CC(O)C(=O)O (stereo not drawn) [Malate] | – | 5100 µM | IC50 (full‐length His6‐JMJD6; IC50 (JMJD6, SPE–MS)): > 50 µM
29 | C/C(=C\C(=O)O)C(=O)O [Mesaconate] | > 50 µM | – | –
30 | O=c1c(-n2ccnn2)c[nH]n1-c1cc(N2CCOCC2)ncn1 [Molidustat] | ~20 µM and 20 µM | 74 µM | –
31 | O=C(O)C(=O)N[C@H](Cc1ccccc1)C(=O)O [NOFD, N‐oxalyl‐D‐phenylalanine] | > 50 µM | – | –
32 | O=C(O)CNC(=O)C(=O)O [NOG, N‐oxalylglycine] | > 50 µM | 296 µM | –
33 | O=C(O)CC(=O)C(=O)O [Oxaloacetate] | > 50 µM | 204 µM | –
34 | CC(=O)C(=O)O [Pyruvate] | > 50 µM | 2380 µM | –
35 | CN(c1ccccc1)c1ccc2c(c1)CCC[C@H]2CNc1cnccc1C(=O)O [QC6352] | ~2.8 µM and 2.8 µM | – | –
36 | Cc1nc(C(=O)NCC(=O)O)c(O)c2ccc(Oc3ccccc3)cc12 [Roxadustat] | > 50 µM | 23 µM | –
37 | Oc1ccnc(N/N=C/c2ccccc2O)n1 [SKLB325] | ~6.7 µM and 6.7 µM | – | IC50 (JMJD6 [4]): 0.78 µM
38 | O=C(O)CCC(=O)O [Succinate] | > 50 µM | 261 µM | –
39 | O=C(O)CNC(=O)C1=C(O)CCN(Cc2ccc(Oc3ccc(Cl)cc3)nc2)C1=O [TP0463518] | ~1.1 µM and 1.1 µM | – | –
40 | O=C(O)CNC(=O)c1ncc(-c2cccc(Cl)c2)cc1O [Vadadustat] | ~17 µM and 17 µM | 7 µM | –
41 | Cc1ccc2oc(=O)c(-c3nc4cnccc4[nH]3)cc2c1 [WL12] | > 50 µM | – | IC50 (JMJD6 [5]): ~0.22 µM and 0.22 µM; IC50 (JMJD6 [6]): > 100 µM
